Each structure is given as a SMILES string.

A short description of the data set: Investigations of solubility of IPN in different solvents. The following applies: for solubility of IPN in NMP: solvent NMP; for solubility of IPN in mesitylene: solvent mesitylene; for solubility of IPN in pseudocumene: solvent pseudocumene. Format: physicochemical. As for the experimental part:
Investigations of Solubility of IPN in Different Solvents
At 60° C., the solubility of IPN in mesitylene or pseudocumene is in each case below 10% by weight.

For the molecule `N#Cc1cccc(C#N)c1` [IPN, 1,3-dicyanobenzene], where the note is “60° C.”, the “solubility of IPN in NMP” value is listed as “approx. 26 % by weight”, the “solubility of IPN in mesitylene” value was “below 10 % by weight” and the “solubility of IPN in pseudocumene” value is “below 10 % by weight”. Further, where the note is “90° C.”, the “solubility of IPN in NMP” value was “approx. 41 % by weight”, the “solubility of IPN in mesitylene” value worked out at 12 % by weight and the “solubility of IPN in pseudocumene” value was found to be 20 % by weight.

Values taken from patent publication US7323598B2, “Preparation of xylylenediamine (XDA)” (BASF Aktiengesellschaft, priority 2003, dated 2008).
